According to patent US11337971B2, “Dopamine D3 receptor selective antagonists/partial agonists and uses thereof” (THE UNITED STATES OF AMERICA, AS REPRESENTED BY THE …, priority 2018, dated 2022):
“Also recorded” adds a separate entry of the source.

Experiments:
[1] = tested on: opioid-induced conditioned place preference; conditions: Ashby et al, 2003; cited from earlier work
Male Long-Evans rats [2] = conditions: Rice et al, 2012; cited from earlier work
rhesus monkeys = assay: Thermal tail withdrawal model of oxycodone antinociception in rhesus monkeys; assay type: in vivo, rhesus monkey; conditions: FIG. 6B
Male Long-Evans rats [3] = assay: Hot plate test of oxycodone-induced antinociceptive response in rats; assay type: in vivo, rat; conditions: oxycodone in vehicle pretreated group
Method: Nociceptive tests were performed using a hot plate device (Model 39, IITC Life Science Inc., Woodland Hills, Calif., USA). The rat was put inside a transparent cage on the hot plate (52±0.2° C.). When thermal nociceptive signs such as licking, stomping the hind paw, or jumping from the plate appeared, the rat was immediately removed from the cage. […] The cut-off time for the test was 60 s to avoid tissue damage.
These experiments involved 8 groups of rats (n=8-9/group) in 2 series of repeated testing: 4 groups were used to test the effects of compound (±)-29 pretreatment on the time course of antinociception induced by oxycodone at a single dose, and another 4 groups were used to test the effects of compound (±)-29 pretreatment on the antinociception induced by various oxycodone doses. Each rat was first habituated to the testing environment for 1 h, followed by placement on the hot plate without treatment to obtain baseline response latencies. The groups in the time course test received baseline testing. Then, group 1 was pretreated with vehicle, and the other 3 groups were pretreated with a dose of compound (±)-29 (5, 15 or 25 mg/kg, i.p.). Fifteen min following the pretreatment, each rat was challenged with a saline injection (1 ml/kg) and, 30 min later, tested for the second time on the hot plate. On the next day, each group received the same pretreatment as on day 1, but challenged with oxycodone (2 mg/kg, i.p.), and each rat was then tested again at 30-, 60- and 120-min following oxycodone challenge. […] Data were calculated as % of maximum percentage effect (% MPE) using the formula: (treatment value−basal value)/(cutoff value−basal value)×100.
Methods: Compound (±)-29 was administered 15 minutes before saline or oxycodone challenge at 5 mg/kg, 15 mg/kg, and 25 mg/kg. […] The rat was then immediately removed from the hot plate and the time latency was recorded.

Compound: N#Cc1ccc2c(c1)CCN(CCC1CCC(NC(=O)c3ccnc4ccccc34)CC1)C2 (stereo not shown) [SB-277011A]
- opioid-induced conditioned place preference [1]: significantly inhibiting opioid-induced conditioned place preference
- CPA induced by naloxone-precipitated withdrawal (Male Long-Evans rats [2]): significantly blocked CPA induced by naloxone-precipitated withdrawal

Compound: O=C1CC[C@@]2(O)[C@H]3Cc4ccc(O)c5c4[C@@]2(CCN3CC2CC2)[C@H]1O5 [naltrexone, reference compound]
- effect on oxycodone antinociception (rhesus monkeys): deleterious effects on oxycodone antinociception

Compound: COc1ccc2c3c1O[C@H]1C(=O)CC[C@@]4(O)[C@@H](C2)N(C)CC[C@]314 [Oxycodone, reference compound]
- % MPE, hot plate (Male Long-Evans rats [3]): significantly increased % MPE; also recorded: dose-dependently increased MPE %
